Laboratory results as given in publication PMC10294832, “Investigation of Naphthyl–Polyamine Conjugates as Antimicrobials and Antibiotic Enhancers” (Antibiotics, 2023).
pIC50: −log10 of the molar value. Where “and” joins values, the source holds several entries; their conditions need not be identical. Equal entries are not always repeated.

Key:
[1] = tested on: P. aeruginosa (PAO1 or ATCC 27853); test: Antimicrobial MIC, P. aeruginosa; format: cell-based; settings: Pseudomonas aeruginosa; P. aeruginosa (PAO1 or ATCC 27853); mean (n = 3); read-out: MIC P. a
Outline: (§1)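 First, the bacterial strains were tested against antibiotics and compounds by the lab's previously described susceptibility method. Then the fungal strains were sent to the Community for Open Antimicrobial Drug Discovery in Australia, which ran its routine antimicrobial evaluation.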

E. coli (ATCC 25922) [2] = test: Enhancement of erythromycin activity; format: cell-based, Escherichia coli; settings: for Eryth/E.c: concentration required to restore erythromycin activity (combination MIC): erythromycin fixed at 10.9 µM (8 µg/mL), E. coli (ATCC 25922); for Eryth/E.c fold change: ratio between intrinsic MIC of test compound and combination MIC, erythromycin 10.9 µM, E. coli
Experimental: Restoring enhancer concentrations were determined using previously reported protocols.

[3] = tested on: P. aeruginosa (ATCC 27853); test: Enhancement of doxycycline activity; format: cell-based, Pseudomonas aeruginosa; settings: for Dox/P.a: concentration required to restore doxycycline activity (combination MIC): doxycycline fixed at 4.5 µM (2 µg/mL), P. aeruginosa (ATCC 27853); for Dox/P.a fold change: ratio between intrinsic MIC of test compound and combination MIC, doxycycline 4.5 µM, P. aeruginosa
[4] = tested on: K. pneumoniae (ATCC 700603); test: Antimicrobial MIC, K. pneumoniae; format: cell-based; settings: Klebsiella pneumoniae, ATCC700603, mean (n = 2)
[5] = tested on: A. baumannii (ATCC 19606); test: Antimicrobial MIC, A. baumannii; format: cell-based, Acinetobacter baumannii; settings: Acinetobacter baumannii, ATCC19606, A. baumannii (ATCC 19606); mean (n = 2)
C. albicans (ATCC 90028) = test: Antifungal MIC, C. albicans; format: cell-based; settings: Candida albicans, ATCC90028, mean (n = 2)
Outline: as §1

MRSA (ATCC 43300) = test: Antimicrobial MIC, MRSA; format: cell-based, methicillin-resistant Staphylococcus aureus; settings: Staphylococcus aureus, MRSA (ATCC 43300); mean (n = 2); read-out: MIC MRSA
[6] = tested on: C. neoformans (ATCC 208821); test: Antifungal MIC, C. neoformans; format: cell-based, Cryptococcus neoformans; settings: Cryptococcus neoformans, ATCC208821, C. neoformans (ATCC 208821); mean (n = 2)
Outline: as §1

[7] = tested on: S. aureus (ATCC 25,923 or ATCC 29213); test: Antimicrobial MIC, S. aureus; format: cell-based, Staphylococcus aureus; settings: Staphylococcus aureus, mean (n = 3)
Outline: as §1

E. coli (ATCC 25922) [8] = test: Antimicrobial MIC, E. coli; format: cell-based, Escherichia coli; settings: Escherichia coli, ATCC25922, E. coli (ATCC 25922); mean (n = 2)
Outline: as §1

human red blood cells = test: Hemolytic assay; format: cell-based; settings: concentration at 10% hemolytic activity on human red blood cells; mean (n = 2)
Experimental: Hemolysis assays were conducted using the protocols previously reported.

Cytotoxicity assay = format: cell-based, human; settings: human, HEK293 human embryonic kidney cells, concentration at 50% cytotoxicity on HEK293 cells; mean (n = 2)
Experimental: Cytotoxicity assays were conducted using the protocols previously reported.

O=C(NCCCNCCCCNCCCNC(=O)c1cccc2ccccc12)c1cccc2ccccc12.O=C(O)C(F)(F)F.O=C(O)C(F)(F)F [Compound 17a, N^1,N^4-Bis(3-(1-naphthamido)propyl)butane-1,4-diaminium 2,2,2-trifluoroacetate]
MIC [1]: 677 µM | Eryth/E.c: concentration required to restore erythromycin activity (combination MIC) (E. coli (ATCC 25922) [2]): 67.7 µM | Eryth/E.c fold change (E. coli (ATCC 25922) [2]): 10 fold | Dox/P.a: concentration required to restore doxycycline activity (combination MIC) [3]: 271 µM | Dox/P.a fold change [3]: 2.5 fold | MIC [4]: > 43.3 µM | melting point: 238 to 239 °C | MIC [5]: > 43.3 µM | MIC (C. albicans (ATCC 90028)): > 43.3 µM | MIC (MRSA (ATCC 43300)): > 43.3 µM | MIC [6]: > 43.3 µM | MIC [7]: 677 µM | MIC (E. coli (ATCC 25922) [8]): 677 µM

O=C(CCC(=O)Nc1ccc(-c2ccccc2)cc1)NCCCNCCCCNCCCNC(=O)CCC(=O)Nc1ccc(-c2ccccc2)cc1.O=C(O)C(F)(F)F.O=C(O)C(F)(F)F [Compound 21a, N^1,N^4-Bis(3-(4-([1,1’-biphenyl]-4-ylamino)-4-oxobutanamido)propyl)butane-1,4-diaminium 2,2,2-trifluoroacetate]
MIC [1]: 300 µM | Eryth/E.c: concentration required to restore erythromycin activity (combination MIC) (E. coli (ATCC 25922) [2]): 300 µM | Eryth/E.c fold change (E. coli (ATCC 25922) [2]): 1 fold | Dox/P.a: concentration required to restore doxycycline activity (combination MIC) [3]: 300 µM | Dox/P.a fold change [3]: 1 fold | MIC [4]: > 34.3 µM | melting point: 203 to 205 °C | MIC [5]: > 34.3 µM | MIC (C. albicans (ATCC 90028)): > 34.3 µM | MIC (MRSA (ATCC 43300)): 0.268 µM | MIC [6]: > 34.3 µM | Hemolysis HC10 (human red blood cells): 31.4 µM | MIC [7]: 300 µM | pIC50 (Cytotoxicity assay): < 4.46 | MIC (E. coli (ATCC 25922) [8]): 300 µM

O=C(O)CCC(=O)Nc1cccc2ccccc12 [Compound 9, 4-(Naphthalen-1-ylamino)-4-oxobutanoic Acid]
melting point: 165 to 167 °C

O=C(CCC(=O)Nc1ccc(-c2ccccc2)cc1)NCCCNCCCCCCCNCCCNC(=O)CCC(=O)Nc1ccc(-c2ccccc2)cc1.O=C(O)C(F)(F)F.O=C(O)C(F)(F)F [Compound 21c, N^1,N^7-Bis(3-(4-([1,1’-biphenyl]-4-ylamino)-4-oxobutanamido)propyl)heptane-1,7-diaminium 2,2,2-trifluoroacetate]
MIC [1]: 300 µM | Eryth/E.c: concentration required to restore erythromycin activity (combination MIC) (E. coli (ATCC 25922) [2]): 300 µM | Eryth/E.c fold change (E. coli (ATCC 25922) [2]): 1 fold | Dox/P.a: concentration required to restore doxycycline activity (combination MIC) [3]: 300 µM | Dox/P.a fold change [3]: 1 fold | MIC [4]: > 32.8 µM | melting point: 178 to 180 °C | MIC [5]: > 32.8 µM | MIC (C. albicans (ATCC 90028)): > 32.8 µM | MIC (MRSA (ATCC 43300)): 0.256 µM | MIC [6]: > 32.8 µM | Hemolysis HC10 (human red blood cells): >32.8 µM | MIC [7]: 200 µM | pIC50 (Cytotoxicity assay): < 4.48 | MIC (E. coli (ATCC 25922) [8]): 300 µM

O=C(CCC(=O)Nc1ccc(-c2ccccc2)cc1)NCCCNCCCCCCNCCCNC(=O)CCC(=O)Nc1ccc(-c2ccccc2)cc1.O=C(O)C(F)(F)F.O=C(O)C(F)(F)F [Compound 21b, N^1,N^6-Bis(3-(4-([1,1’-biphenyl]-4-ylamino)-4-oxobutanamido)propyl)hexane-1,6-diaminium 2,2,2-trifluoroacetate]
MIC [1]: 300 µM | Eryth/E.c: concentration required to restore erythromycin activity (combination MIC) (E. coli (ATCC 25922) [2]): 300 µM | Eryth/E.c fold change (E. coli (ATCC 25922) [2]): 1 fold | Dox/P.a: concentration required to restore doxycycline activity (combination MIC) [3]: 300 µM | Dox/P.a fold change [3]: 1 fold | MIC [4]: > 33.3 µM | melting point: 200 to 202 °C | MIC [5]: > 33.3 µM | MIC (C. albicans (ATCC 90028)): > 33.3 µM | MIC (MRSA (ATCC 43300)): 2.08 µM | MIC [6]: > 33.3 µM | Hemolysis HC10 (human red blood cells): >33.3 µM | MIC [7]: 300 µM | pIC50 (Cytotoxicity assay): < 4.48 | MIC (E. coli (ATCC 25922) [8]): 300 µM

O=C(CCC(=O)Nc1ccc(-c2ccccc2)cc1)NCCCNCCCCCCCCCCNCCCNC(=O)CCC(=O)Nc1ccc(-c2ccccc2)cc1.O=C(O)C(F)(F)F.O=C(O)C(F)(F)F [Compound 21e, N^1,N^10-Bis(3-(4-([1,1’-biphenyl]-4-ylamino)-4-oxobutanamido)propyl)decane-1,10-diaminium 2,2,2-trifluoroacetate]
MIC [1]: 300 µM | Eryth/E.c: concentration required to restore erythromycin activity (combination MIC) (E. coli (ATCC 25922) [2]): 300 µM | Eryth/E.c fold change (E. coli (ATCC 25922) [2]): 1 fold | Dox/P.a: concentration required to restore doxycycline activity (combination MIC) [3]: 300 µM | Dox/P.a fold change [3]: 1 fold | MIC [4]: > 31.5 µM | melting point: 184 to 186 °C | MIC [5]: > 31.5 µM | MIC (C. albicans (ATCC 90028)): 31.5 µM | MIC (MRSA (ATCC 43300)): 0.246 µM | MIC [6]: 15.7 µM | Hemolysis HC10 (human red blood cells): 6.3 µM and 6.32 µM | MIC [7]: 300 µM | pIC50 (Cytotoxicity assay): < 4.50 | MIC (E. coli (ATCC 25922) [8]): 300 µM

O=C(CCC(=O)Nc1ccc(-c2ccccc2)cc1)NCCCNCCCCCCCCNCCCNC(=O)CCC(=O)Nc1ccc(-c2ccccc2)cc1.O=C(O)C(F)(F)F.O=C(O)C(F)(F)F [Compound 21d, N^1,N^8-Bis(3-(4-([1,1’-biphenyl]-4-ylamino)-4-oxobutanamido)propyl)octane-1,8-diaminium 2,2,2-trifluoroacetate]
MIC [1]: 300 µM | Eryth/E.c: concentration required to restore erythromycin activity (combination MIC) (E. coli (ATCC 25922) [2]): 300 µM | Eryth/E.c fold change (E. coli (ATCC 25922) [2]): 1 fold | Dox/P.a: concentration required to restore doxycycline activity (combination MIC) [3]: 300 µM | Dox/P.a fold change [3]: 1 fold | MIC [4]: > 32.4 µM | melting point: 182 to 184 °C | MIC [5]: > 32.4 µM | MIC (C. albicans (ATCC 90028)): > 32.4 µM | MIC (MRSA (ATCC 43300)): 0.506 µM | MIC [6]: > 32.4 µM | Hemolysis HC10 (human red blood cells): >32.4 µM | MIC [7]: 300 µM | pIC50 (Cytotoxicity assay): < 4.49 | MIC (E. coli (ATCC 25922) [8]): 300 µM

O=C(O)CCC(=O)Nc1ccc(-c2ccccc2)cc1 [Compound 12, 4-([1,1’-Biphenyl]-4-ylamino)-4-oxobutanoic Acid]
melting point: > 230 °C

O=C(NCCCNCCCCCCNCCCNC(=O)c1cccc2ccccc12)c1cccc2ccccc12.O=C(O)C(F)(F)F.O=C(O)C(F)(F)F [Compound 17b, N^1,N^6-Bis(3-(1-naphthamido)propyl)hexane-1,6-diaminium 2,2,2-trifluoroacetate]
MIC [1]: 200 µM | Eryth/E.c: concentration required to restore erythromycin activity (combination MIC) (E. coli (ATCC 25922) [2]): 100 µM | Eryth/E.c fold change (E. coli (ATCC 25922) [2]): 2 fold | Dox/P.a: concentration required to restore doxycycline activity (combination MIC) [3]: 12.5 µM | Dox/P.a fold change [3]: 16 fold | MIC [4]: > 41.7 µM | melting point: 225 to 227 °C | MIC [5]: > 41.7 µM | MIC (C. albicans (ATCC 90028)): > 41.7 µM | MIC (MRSA (ATCC 43300)): > 41.7 µM | MIC [6]: > 41.7 µM | Hemolysis HC10 (human red blood cells): >41.7 µM | MIC [7]: 200 µM | pIC50 (Cytotoxicity assay): < 4.38 | MIC (E. coli (ATCC 25922) [8]): 200 µM

O=C(NCCCNCCCCCCCNCCCNC(=O)c1ccc2ccccc2c1)c1ccc2ccccc2c1.O=C(O)C(F)(F)F.O=C(O)C(F)(F)F [Compound 19c, N^1,N^7-Bis(3-(2-naphthamido)propyl)heptane-1,7-diaminium 2,2,2-trifluoroacetate]
MIC [1]: 32 µM | Eryth/E.c: concentration required to restore erythromycin activity (combination MIC) (E. coli (ATCC 25922) [2]): 4.0 µM | Eryth/E.c fold change (E. coli (ATCC 25922) [2]): 4 fold | Dox/P.a: concentration required to restore doxycycline activity (combination MIC) [3]: 4.0 µM and 4.00 µM | Dox/P.a fold change [3]: 8 fold | MIC [4]: > 41 µM | MIC [5]: > 41 µM | MIC (C. albicans (ATCC 90028)): > 41 µM | MIC (MRSA (ATCC 43300)): ≤ 0.32 µM | MIC [6]: ≤ 0.32 µM | Hemolysis HC10 (human red blood cells): >41.0 µM | MIC [7]: 16 µM | pIC50 (Cytotoxicity assay): 4.69 | MIC (E. coli (ATCC 25922) [8]): 16 µM

O=C(CCC(=O)Nc1cccc2ccccc12)NCCCNCCCCCCCCNCCCNC(=O)CCC(=O)Nc1cccc2ccccc12.O=C(O)C(F)(F)F.O=C(O)C(F)(F)F [Compound 18d, N^1,N^8-Bis(3-(4-(naphthalen-1-ylamino)-4-oxobutanamido)propyl)octane-1,8-diaminium 2,2,2-trifluoroacetate]
MIC [1]: > 107 µM | Eryth/E.c: concentration required to restore erythromycin activity (combination MIC) (E. coli (ATCC 25922) [2]): 107 µM | Eryth/E.c fold change (E. coli (ATCC 25922) [2]): 1 fold | Dox/P.a: concentration required to restore doxycycline activity (combination MIC) [3]: > 107 µM | Dox/P.a fold change [3]: 1 fold | MIC [4]: > 34.2 µM | MIC [5]: > 34.2 µM | MIC (C. albicans (ATCC 90028)): > 34.2 µM | MIC (MRSA (ATCC 43300)): > 34.2 µM | MIC [6]: > 34.2 µM | Hemolysis HC10 (human red blood cells): >34.2 µM | MIC [7]: 107 µM | pIC50 (Cytotoxicity assay): < 4.47 | MIC (E. coli (ATCC 25922) [8]): > 107 µM
